Reference: patent US20130053330A1, “Fertilization Prediction and Promotion” (Karolinska Institutet Innovations AB, priority 2010, published 2013)
Peptide text beside a SMILES is read from it.

Columns and labels:
[1] = test system: Human endometrial endothelial (HEE) cells; test: Cell proliferation assay, HEE cells; type: cell-based; conditions: 100 ng/ml; starvation medium with 0.25% FCS; cell numbers scored after 5 days
Method: (§1) By using a proliferation and a migration (chemotaxis) assay the importance of HRG as well as HRG peptides was analyzed. The peptides used correspond to a fragment of full-length HRG containing 35 amino acids covering position 204 in the protein; the proline of native HRG in that specific position is changed to serine. The amino acid sequences are: […] NO: 7, named HRGPro herein) and […] NO: 8, named […] herein); the peptides were produced and purchased from Innovagen, Lund, Sweden. Cells (G10 and HEEC) in culture medium supplemented with 10% FCS were seeded into 24-well dishes. After 2 h the medium was changed to starvation medium (culture medium containing 0.25% FCS) and the incubation continued for an additional 24 h. The medium was changed again at day 2 and day 4 (starvation medium), and at the same time FGF-2 or VEGF, HRG or HRG Pro or Ser containing peptide were added. As a control, cells were cultured in basal culture medium supplemented with 10% FCS. Cell numbers were scored after 5 days. Human endometrial endothelial (HEE) cells were cultured in starvation medium containing culture medium (3 H) supplemented with 0.25% FCS.

[2] = test system: Human endometrial endothelial (HEE) cells; test: Chemotaxis (migration) assay in modified Boyden chamber, HEE cells; type: cell-based; conditions: VEGF 10 ng/ml; for inhibition of VEGF-induced migration of HEE cells: 100 ng/ml in lower chamber, 4-6 h at 37° C.
Method: By using a proliferation and a migration (chemotaxis) assay the importance of HRG as well as HRG peptides was analyzed. The peptides used correspond to a fragment of full-length HRG containing 35 amino acids covering position 204 in the protein; the proline of native HRG in that specific position is changed to serine. The amino acid sequences are: […] NO: 7, named HRGPro herein) and […] NO: 8, named […] herein); the peptides were produced and purchased from Innovagen, Lund, Sweden. The assay was performed in a modified Boyden chamber using micropore nitrocellulose filters (8 μm thick, 8 μm pore) coated with type-1 collagen solution at 100 μg/ml (Vitrogen 100, Collagen Corp.). Cells (G10 and HEEC cells) were trypsinized and resuspended at a concentration of 5.5×10^5 cells/ml in serum-free culture medium containing 0.25% fetal calf serum (FCS). […] After 4-6 h at 37° C., the medium was removed and the cells sticking to the filter were fixed in pure methanol and stained with Giemsa stain. The cells that had migrated through the filter were counted. The effects of HRG, HRGPro and […] on migration of G10 and HEE cells were examined by using a Boyden chamber.

[3] = test system: G10 cells (Porcine aortic endothelial cells); test: Chemotaxis (migration) assay in modified Boyden chamber, G10 cells; type: cell-based, pig; conditions: for inhibition of VEGF-induced migration of G10 cells: 100 ng/ml in lower chamber, 4-6 h at 37° C.
Method: By using a proliferation and a migration (chemotaxis) assay the importance of HRG as well as HRG peptides was analyzed. The peptides used correspond to a fragment of full-length HRG containing 35 amino acids covering position 204 in the protein; the proline of native HRG in that specific position is changed to serine. The amino acid sequences are: […] (SEQ ID NO: 7, named HRGPro herein) and […] (SEQ ID NO: 8, named HRGSer herein); the peptides were produced and purchased from Innovagen, Lund, Sweden.
The assay was performed in a modified Boyden chamber using micropore nitrocellulose filters (8 μm thick, 8 μm pore) coated with type-1 collagen solution at 100 μg/ml (Vitrogen 100, Collagen Corp.). Cells (G10 and HEEC cells) were trypsinized and resuspended at a concentration of 5.5×10^5 cells/ml in serum-free culture medium containing 0.25% fetal calf serum (FCS). The cell suspension was placed in the upper chamber, and the serum-free medium containing 0.25% FCS and FGF-2 or VEGF, HRG or the HRGPro or HRGSer peptide, was placed below the filter in the lower chamber. As a positive control, medium containing 10% FCS was added to the lower chamber. After 4-6 h at 37° C., the medium was removed and the cells sticking to the filter were fixed in pure methanol and stained with Giemsa stain. The cells that had migrated through the filter were counted.
The effects of HRG, HRGPro and HRGSer on migration of G10 and HEE cells were examined by using a Boyden chamber.

[4] = test system: G10 cells (Porcine aortic endothelial cells); conditions: 100 ng/ml; starvation medium (Ham's F12, 0.25% FCS); cell numbers scored after 5 days
Method: as §1, with “G10 cells (Porcine aortic” for “Human endometrial”, “cells)” for “(HEE) cells”, “(Ham's F12)” for “(3 H)”

Row | Molecule | increase in number of HEE cells compared with culture in starvation medium [1] | inhibition of VEGF-induced migration of HEE cells [2] | inhibition of VEGF-induced migration of G10 cells [3] | induction of migration of G10 cells ([3]; FGF 20 ng/ml) | induction of migration of HEE cells [2] | inhibition of proliferation of G10 cells (decrease compared with culture in starvation medium) [4]
1 | CC(C)[C@H](NC(=O)[C@H](CC(N)=O)NC(=O)[C@@H]1CCCN1C(=O)[C@H](Cc1c[nH]cn1)NC(=O)[C@H](CCCNC(=N)N)NC(=O)[C@@H]1CCCN1C(=O)[C@H](Cc1ccccc1)NC(=O)[C@H](Cc1c[nH]cn1)NC(=O)[C@H](Cc1c[nH]cn1)NC(=O)[C@H](CCCNC(=N)N)NC(=O)[C@@H]1CCCN1C(=O)[C@H](CS)NC(=O)[C@H](CC(N)=O)NC(=O)[C@H](CCCNC(=N)N)NC(=O)[C@@H](NC(=O)[C@H](CO)NC(=O)[C@H](Cc1ccccc1)NC(=O)[C@H](CC(=O)O)NC(=O)[C@@H](NC(=O)[C@H](Cc1ccccc1)NC(=O)[C@H](Cc1ccc(O)cc1)NC(=O)CNC(=O)[C@@H](NC(=O)CNC(=O)[C@H](CCC(=O)O)NC(=O)CNC(=O)CNC(=O)[C@@H](N)CCCNC(=N)N)[C@@H](C)O)C(C)C)C(C)C)C(=O)N[C@@H](Cc1ccccc1)C(=O)NCC(=O)N[C@@H](Cc1ccccc1)C(=O)N[C@@H](CS)C(=O)N[C@@H](CCCNC(=N)N)C(=O)N[C@@H](C)C(=O)N[C@@H](CC(=O)O)C(=O)O [HRGPro] (H-RGGEGTGYFVDFSVRNCPRHHFPRHPNVFGFCRAD-OH; N-terminus and C-terminus assumed) | 13% | A tendency | A tendency |  |  | 
2 | CC(C)[C@H](NC(=O)[C@H](CC(N)=O)NC(=O)[C@@H]1CCCN1C(=O)[C@H](Cc1c[nH]cn1)NC(=O)[C@H](CCCNC(=N)N)NC(=O)[C@@H]1CCCN1C(=O)[C@H](Cc1ccccc1)NC(=O)[C@H](Cc1c[nH]cn1)NC(=O)[C@H](Cc1c[nH]cn1)NC(=O)[C@H](CCCNC(=N)N)NC(=O)[C@H](CO)NC(=O)[C@H](CS)NC(=O)[C@H](CC(N)=O)NC(=O)[C@H](CCCNC(=N)N)NC(=O)[C@@H](NC(=O)[C@H](CO)NC(=O)[C@H](Cc1ccccc1)NC(=O)[C@H](CC(=O)O)NC(=O)[C@@H](NC(=O)[C@H](Cc1ccccc1)NC(=O)[C@H](Cc1ccc(O)cc1)NC(=O)CNC(=O)[C@@H](NC(=O)CNC(=O)[C@H](CCC(=O)O)NC(=O)CNC(=O)CNC(=O)[C@@H](N)CCCNC(=N)N)[C@@H](C)O)C(C)C)C(C)C)C(=O)N[C@@H](Cc1ccccc1)C(=O)NCC(=O)N[C@@H](Cc1ccccc1)C(=O)N[C@@H](CS)C(=O)N[C@@H](CCCNC(=N)N)C(=O)N[C@@H](C)C(=O)N[C@@H](CC(=O)O)C(=O)O [HRGSer] (H-RGGEGTGYFVDFSVRNCSRHHFPRHPNVFGFCRAD-OH; N-terminus and C-terminus assumed) | 86% | inhibited significantly | inhibited significantly |  |  | 
3 | FGF: Fibroblast Growth Factor, used to induce migration of G10 cells [reference compound] |  |  |  | induced migration |  | 
4 | VEGF [reference compound] |  |  |  |  | induced migration | 
5 | Histidine-rich glycoprotein (protein) VSPTDCSAVEPEAEKALDLINKRRRDGYLFQLLRIADAHLDRVENTTVYYLVLDVQESDCSVLSRKYWNDCEPPDSRRPSEIVIGQCKVIATRHSHESQDLRVIDFNCTTSSVSSALANTKDSPVLIDFFEDTERYRKQANKALEKYKEENDDFASFRVDRIERVARVRGGEGTGYFVDFSVRNCPRHHFPRHPNVFGFCRADLFYDVEALDLESPKNLVINCEVFDPQEHENINGVPPHLGHPFHWGGHERSSTTKPPFKPHGSRDHHHPHKPHEHGPPPPPDERDHSHGPPLPQGPPPLLPMSCSSCQHATFGTNGAQRHSHNNNSSDLHPHKHHSHEQHPHGHHPHAHHPHEHDTHRQHPHGHHPHGHHPHGHHPHGHHPHGHHPHCHDFQDYGPCDPPPHNQGHCCHGHGPPPGHLRRRGPGKGPRPFHCRQIGSVYRLPPLRKGEVLPLPEANFPSFPLPHHKHPLKPDNQPFPQSVSESCPGKFKSGFPQVSMFFTHTFPK | 6% | A tendency | A tendency |  |  | 24%
